Test results from PMC5392334, “Discovery and characterization of a novel irreversible EGFR mutants selective and potent kinase inhibitor CHMFL-EGFR-26 with a distinct binding mode” (Oncotarget, 2017).

Columns and labels:
MYLK = target: T1, MYLK (Homo sapiens, UniProt Q15746); experiment: KinomeScan; type: binding; settings: read-out: % control
T1 construct: purchased DiscoveRx KINOMEscan

CSNK1A1L = target: T2, CSNK1A1L (Homo sapiens, UniProt Q8N752); experiment: KinomeScan; type: binding; settings: read-out: % control
T2 construct: purchased DiscoveRx KINOMEscan
T2 sequence (Q8N752 whole entry): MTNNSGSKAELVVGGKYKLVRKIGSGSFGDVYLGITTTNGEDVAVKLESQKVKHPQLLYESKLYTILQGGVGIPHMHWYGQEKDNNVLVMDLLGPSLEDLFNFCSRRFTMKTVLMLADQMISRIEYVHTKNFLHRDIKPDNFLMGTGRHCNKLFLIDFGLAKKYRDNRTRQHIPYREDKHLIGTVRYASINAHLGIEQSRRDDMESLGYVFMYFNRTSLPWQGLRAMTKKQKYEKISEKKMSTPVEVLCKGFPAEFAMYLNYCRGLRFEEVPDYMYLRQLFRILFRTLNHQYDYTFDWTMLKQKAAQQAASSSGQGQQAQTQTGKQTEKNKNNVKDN

CAMK1B = target: T3, CAMK1B (Homo sapiens, UniProt Q6P2M8); experiment: KinomeScan; type: binding; settings: read-out: % control
T3 construct: purchased DiscoveRx KINOMEscan

CDK4-cyclinD3 = target: T4, CDK4-cyclinD3 (Homo sapiens, UniProt P11802); experiment: KinomeScan; type: binding; settings: read-out: % control
T4 construct: purchased DiscoveRx KINOMEscan
T4 sequence (P11802 whole entry): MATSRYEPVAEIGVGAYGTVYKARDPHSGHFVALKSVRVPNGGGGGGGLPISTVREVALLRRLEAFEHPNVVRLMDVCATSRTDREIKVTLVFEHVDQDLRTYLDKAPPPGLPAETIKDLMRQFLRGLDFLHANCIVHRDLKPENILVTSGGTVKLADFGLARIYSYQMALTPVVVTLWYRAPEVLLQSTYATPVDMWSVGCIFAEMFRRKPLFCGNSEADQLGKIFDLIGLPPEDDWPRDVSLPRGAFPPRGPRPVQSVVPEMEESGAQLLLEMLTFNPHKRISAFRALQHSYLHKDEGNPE
T4 sequence (P30281 whole entry partner): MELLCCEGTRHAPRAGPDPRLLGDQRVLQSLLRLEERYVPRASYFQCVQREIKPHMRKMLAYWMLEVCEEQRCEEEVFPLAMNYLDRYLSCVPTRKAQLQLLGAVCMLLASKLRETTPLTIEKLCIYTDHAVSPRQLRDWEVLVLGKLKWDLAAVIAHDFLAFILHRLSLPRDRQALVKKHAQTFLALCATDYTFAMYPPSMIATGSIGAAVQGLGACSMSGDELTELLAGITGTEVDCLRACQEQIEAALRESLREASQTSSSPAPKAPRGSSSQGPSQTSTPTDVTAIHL

AKT2 = target: T5, AKT2 (Homo sapiens, UniProt P31751); experiment: KinomeScan; type: binding; settings: read-out: % control
T5 construct: purchased DiscoveRx KINOMEscan
T5 sequence (P31751 whole entry): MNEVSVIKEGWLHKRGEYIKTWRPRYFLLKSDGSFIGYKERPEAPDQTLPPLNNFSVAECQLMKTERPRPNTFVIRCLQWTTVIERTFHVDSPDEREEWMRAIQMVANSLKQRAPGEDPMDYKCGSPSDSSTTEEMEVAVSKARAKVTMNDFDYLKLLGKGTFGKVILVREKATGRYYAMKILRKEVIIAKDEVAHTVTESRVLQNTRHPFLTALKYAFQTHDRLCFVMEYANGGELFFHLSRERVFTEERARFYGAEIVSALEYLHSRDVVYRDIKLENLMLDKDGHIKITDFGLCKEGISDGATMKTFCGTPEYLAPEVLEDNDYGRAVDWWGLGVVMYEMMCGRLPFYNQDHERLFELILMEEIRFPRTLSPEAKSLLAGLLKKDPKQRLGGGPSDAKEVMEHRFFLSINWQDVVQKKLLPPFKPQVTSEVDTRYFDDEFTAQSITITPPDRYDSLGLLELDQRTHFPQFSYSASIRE

LKB1 = target: T6, LKB1 (Homo sapiens, UniProt Q15831); experiment: KinomeScan; type: binding; settings: read-out: % control
T6 construct: purchased DiscoveRx KINOMEscan

FLT3-autoinhibited = target: T7, FLT3-autoinhibited (Homo sapiens, UniProt P36888); experiment: KinomeScan; type: binding; settings: read-out: % control
T7 construct: purchased DiscoveRx KINOMEscan

MARK1 = target: T8, MARK1 (Homo sapiens, UniProt Q9P0L2); experiment: KinomeScan; type: binding; settings: read-out: % control
T8 construct: purchased DiscoveRx KINOMEscan

FGFR3 = target: T9, FGFR3 (Homo sapiens, UniProt P22607); experiment: KinomeScan; type: binding; settings: read-out: % control
T9 construct: purchased DiscoveRx KINOMEscan
T9 sequence (P22607 23-806): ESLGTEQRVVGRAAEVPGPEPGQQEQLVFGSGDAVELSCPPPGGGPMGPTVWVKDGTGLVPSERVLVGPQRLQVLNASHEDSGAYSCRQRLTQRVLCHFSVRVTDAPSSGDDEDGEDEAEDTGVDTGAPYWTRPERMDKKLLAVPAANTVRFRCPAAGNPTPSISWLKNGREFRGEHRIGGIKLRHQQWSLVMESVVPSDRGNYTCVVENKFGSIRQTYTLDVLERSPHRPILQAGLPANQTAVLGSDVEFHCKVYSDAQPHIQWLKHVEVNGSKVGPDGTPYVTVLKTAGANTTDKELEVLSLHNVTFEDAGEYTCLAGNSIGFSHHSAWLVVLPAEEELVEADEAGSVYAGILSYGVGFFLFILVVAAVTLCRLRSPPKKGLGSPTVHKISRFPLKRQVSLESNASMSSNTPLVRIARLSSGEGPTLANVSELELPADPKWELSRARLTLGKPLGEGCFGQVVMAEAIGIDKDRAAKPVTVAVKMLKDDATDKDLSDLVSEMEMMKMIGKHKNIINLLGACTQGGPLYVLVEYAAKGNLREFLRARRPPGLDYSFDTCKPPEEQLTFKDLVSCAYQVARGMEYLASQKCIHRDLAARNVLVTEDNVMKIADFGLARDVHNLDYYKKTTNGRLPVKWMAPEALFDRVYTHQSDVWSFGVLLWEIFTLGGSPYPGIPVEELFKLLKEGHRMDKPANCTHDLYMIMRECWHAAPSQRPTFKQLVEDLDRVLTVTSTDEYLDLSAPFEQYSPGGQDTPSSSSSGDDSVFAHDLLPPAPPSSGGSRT

NDR2 = target: T10, NDR2 (Homo sapiens, UniProt Q9Y2H1); experiment: KinomeScan; type: binding; settings: read-out: % control
T10 construct: purchased DiscoveRx KINOMEscan

[1] = target: T11, ABL1(F317L)-phosphorylated (Homo sapiens, UniProt P00519, F317L); experiment: KinomeScan; type: binding; settings: read-out: % control
T11 construct: purchased DiscoveRx KINOMEscan

[2] = target: T12, JAK3(JH1domain-catalytic) (Homo sapiens, UniProt P52333); experiment: KinomeScan; type: binding; settings: read-out: % control
T12 construct: JAK3(JH1domain-catalytic); purchased DiscoveRx KINOMEscan
T12 sequence (P52333 822-1124 limits assumed): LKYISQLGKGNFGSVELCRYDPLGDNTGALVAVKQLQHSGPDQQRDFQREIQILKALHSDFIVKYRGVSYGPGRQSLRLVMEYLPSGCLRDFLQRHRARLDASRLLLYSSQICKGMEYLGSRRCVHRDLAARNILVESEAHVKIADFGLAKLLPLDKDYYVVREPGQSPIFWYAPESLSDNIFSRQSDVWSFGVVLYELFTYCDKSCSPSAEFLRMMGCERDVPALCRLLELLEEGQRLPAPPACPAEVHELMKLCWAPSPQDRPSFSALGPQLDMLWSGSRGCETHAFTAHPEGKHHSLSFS

BaF3-INSR = experiment: Anti-proliferative effects, INSR transformed isogenic BaF3 cells; type: cell-based; settings: Mus musculus, read-out: IC50 (anti-proliferative; GI50)
TLK1 = target: T13, TLK1 (Homo sapiens, UniProt Q9UKI8); experiment: KinomeScan; type: binding; settings: read-out: % control
T13 construct: purchased DiscoveRx KINOMEscan

MKNK1 = target: T14, MKNK1 (Homo sapiens, UniProt Q9BUB5); experiment: KinomeScan; type: binding; settings: read-out: % control
T14 construct: purchased DiscoveRx KINOMEscan

H1975 (EGFRL858R/T790M) = experiment: Anti-proliferation, NSCLC cell lines (CellTiter-Glo); type: cell-based, human
Description: The human cancer cell lines H1975, HCC827, H2122, CHO, CHL and H1355 were purchased from the American Type Culture Collection (ATCC) (Manassas, VA, USA). PC9 cell line was purchased from the Sigma-Aldrich (St. Louis, MO, USA). A549, H3255 were purchased from Cobioer Biosciences CO., LTD (Nanjing, China). […] A549 and H1355 were cultured in F-12K Nutrient Mixture (kaighn's Modification) (Gibco, USA) with 10% FBS and supplemented with 2% L-glutamine and 1% pen/strep. H3255 was cultured in BEGM media (LONZA, USA) with 10% FBS and supplemented with 2% L-glutamine and 1% pen/strep.

INSRR = target: T15, INSRR (Homo sapiens, UniProt P14616); experiment: KinomeScan; type: binding; settings: read-out: % control
T15 construct: purchased DiscoveRx KINOMEscan

STK39 = target: T16, STK39 (Homo sapiens, UniProt Q9UEW8); experiment: KinomeScan; type: binding; settings: read-out: % control
T16 construct: purchased DiscoveRx KINOMEscan

DYRK1A = target: T17, DYRK1A (Homo sapiens, UniProt Q13627); experiment: KinomeScan; type: binding; settings: read-out: % control
T17 construct: purchased DiscoveRx KINOMEscan

GRK7 = target: T18, GRK7 (Homo sapiens, UniProt Q8WTQ7); experiment: KinomeScan; type: binding; settings: read-out: % control
T18 construct: purchased DiscoveRx KINOMEscan

[3] = target: T19, RSK3(Kin.Dom.2-C-terminal) (Homo sapiens, UniProt Q15349); experiment: KinomeScan; type: binding; settings: read-out: % control
T19 construct: RSK3(Kin.Dom.2-C-terminal); purchased DiscoveRx KINOMEscan

MYLK2 = target: T20, MYLK2 (Homo sapiens, UniProt Q9H1R3); experiment: KinomeScan; type: binding; settings: read-out: % control
T20 construct: purchased DiscoveRx KINOMEscan

HIPK1 = target: T21, HIPK1 (Homo sapiens, UniProt Q86Z02); experiment: KinomeScan; type: binding; settings: read-out: % control
T21 construct: purchased DiscoveRx KINOMEscan

CAMK1 = target: T22, CAMK1 (Homo sapiens, UniProt Q14012); experiment: KinomeScan; type: binding; settings: read-out: % control
T22 construct: purchased DiscoveRx KINOMEscan

BRAF(V600E) = target: T23, BRAF(V600E) (Homo sapiens, UniProt P15056, V600E); experiment: KinomeScan; type: binding; settings: read-out: % control
T23 construct: purchased DiscoveRx KINOMEscan

BMX = target: T24, BMX (Homo sapiens, UniProt P51813); experiment: KinomeScan; type: binding; settings: read-out: % control
T24 construct: purchased Invitrogen (SelectScreen service)

PIK3CD = target: T25, PIK3CD (Homo sapiens, UniProt O00329); experiment: KinomeScan; type: binding; settings: read-out: % control
T25 construct: purchased DiscoveRx KINOMEscan

CDK8 = target: T26, CDK8 (Homo sapiens, UniProt P49336); experiment: KinomeScan; type: binding; settings: read-out: % control
T26 construct: purchased DiscoveRx KINOMEscan

CIT = target: T27, CIT (Homo sapiens, UniProt O14578); experiment: KinomeScan; type: binding; settings: read-out: % control
T27 construct: purchased DiscoveRx KINOMEscan

MAPKAPK5 = target: T28, MAPKAPK5 (Homo sapiens, UniProt Q8IW41); experiment: KinomeScan; type: binding; settings: read-out: % control
T28 construct: purchased DiscoveRx KINOMEscan

PIK3CG = target: T29, PIK3CG (Homo sapiens, UniProt P48736); experiment: KinomeScan; type: binding; settings: read-out: % control
T29 construct: purchased DiscoveRx KINOMEscan

ERK8 = target: T30, ERK8 (Homo sapiens, UniProt Q8TD08); experiment: KinomeScan; type: binding; settings: read-out: % control
T30 construct: purchased DiscoveRx KINOMEscan

AXL = target: T31, AXL (Homo sapiens, UniProt P30530); experiment: KinomeScan; type: binding; settings: read-out: % control
T31 construct: purchased DiscoveRx KINOMEscan
T31 sequence (P30530 26-894): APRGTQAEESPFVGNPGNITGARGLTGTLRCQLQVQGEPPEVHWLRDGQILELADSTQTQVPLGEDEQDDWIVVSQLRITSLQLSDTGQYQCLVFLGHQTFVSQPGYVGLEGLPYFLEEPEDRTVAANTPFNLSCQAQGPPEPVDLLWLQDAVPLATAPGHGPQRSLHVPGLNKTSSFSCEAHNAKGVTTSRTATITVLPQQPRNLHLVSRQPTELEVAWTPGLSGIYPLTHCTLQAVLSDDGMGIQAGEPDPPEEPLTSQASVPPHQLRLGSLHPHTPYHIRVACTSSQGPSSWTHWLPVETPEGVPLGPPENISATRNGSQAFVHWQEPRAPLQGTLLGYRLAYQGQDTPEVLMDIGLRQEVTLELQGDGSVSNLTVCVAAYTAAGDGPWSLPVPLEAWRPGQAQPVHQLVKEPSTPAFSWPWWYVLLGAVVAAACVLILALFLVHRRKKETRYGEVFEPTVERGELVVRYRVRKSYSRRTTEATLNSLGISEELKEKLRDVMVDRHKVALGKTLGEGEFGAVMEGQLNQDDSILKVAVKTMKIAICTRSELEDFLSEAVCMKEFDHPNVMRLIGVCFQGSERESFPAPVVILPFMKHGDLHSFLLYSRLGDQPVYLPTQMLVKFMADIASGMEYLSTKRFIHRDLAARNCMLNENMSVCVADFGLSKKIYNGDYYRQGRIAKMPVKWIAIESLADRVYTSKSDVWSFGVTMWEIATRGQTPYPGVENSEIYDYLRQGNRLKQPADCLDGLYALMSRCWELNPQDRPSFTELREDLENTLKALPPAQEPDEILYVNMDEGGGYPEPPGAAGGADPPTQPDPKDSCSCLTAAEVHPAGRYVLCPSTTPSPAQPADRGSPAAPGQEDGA

EGFR(G719C) = target: T32, EGFR(G719C) (Homo sapiens, UniProt P00533, G719C); experiment: KinomeScan; type: binding; settings: read-out: % control
T32 construct: purchased DiscoveRx KINOMEscan

EPHB2 = target: T33, EPHB2 (Homo sapiens, UniProt P29323); experiment: KinomeScan; type: binding; settings: read-out: % control
T33 construct: purchased DiscoveRx KINOMEscan

PLK1 = target: T34, PLK1 (Homo sapiens, UniProt P53350); experiment: KinomeScan; type: binding; settings: read-out: % control
T34 construct: purchased DiscoveRx KINOMEscan

PRP4 = target: T35, PRP4 (Homo sapiens, UniProt Q13523); experiment: KinomeScan; type: binding; settings: read-out: % control
T35 construct: purchased DiscoveRx KINOMEscan
T35 sequence (Q13523 whole entry): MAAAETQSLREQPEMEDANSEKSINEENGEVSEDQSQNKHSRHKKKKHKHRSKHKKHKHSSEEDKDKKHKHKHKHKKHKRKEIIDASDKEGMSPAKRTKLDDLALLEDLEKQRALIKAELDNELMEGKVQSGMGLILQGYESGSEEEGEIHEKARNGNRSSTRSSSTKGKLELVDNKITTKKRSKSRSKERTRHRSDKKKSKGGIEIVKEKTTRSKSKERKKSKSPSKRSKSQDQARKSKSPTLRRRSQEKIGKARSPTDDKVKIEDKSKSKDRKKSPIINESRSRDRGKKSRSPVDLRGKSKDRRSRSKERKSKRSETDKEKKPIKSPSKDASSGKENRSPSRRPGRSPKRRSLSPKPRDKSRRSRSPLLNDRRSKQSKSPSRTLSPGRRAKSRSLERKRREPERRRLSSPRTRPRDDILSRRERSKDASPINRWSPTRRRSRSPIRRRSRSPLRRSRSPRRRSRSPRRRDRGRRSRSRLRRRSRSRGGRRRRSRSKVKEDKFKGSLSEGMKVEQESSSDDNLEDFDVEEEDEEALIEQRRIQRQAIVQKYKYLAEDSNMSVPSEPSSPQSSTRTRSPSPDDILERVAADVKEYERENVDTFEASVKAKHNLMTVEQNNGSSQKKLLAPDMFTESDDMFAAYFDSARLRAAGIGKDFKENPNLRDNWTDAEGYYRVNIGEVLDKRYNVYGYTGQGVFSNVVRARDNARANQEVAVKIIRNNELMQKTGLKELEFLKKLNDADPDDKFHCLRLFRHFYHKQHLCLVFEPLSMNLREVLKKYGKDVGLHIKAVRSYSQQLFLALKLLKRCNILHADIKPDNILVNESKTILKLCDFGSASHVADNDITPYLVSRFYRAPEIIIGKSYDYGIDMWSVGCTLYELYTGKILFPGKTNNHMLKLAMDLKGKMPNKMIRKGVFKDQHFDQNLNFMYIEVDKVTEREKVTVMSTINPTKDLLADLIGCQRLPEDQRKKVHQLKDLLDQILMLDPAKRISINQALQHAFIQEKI

[4] = target: T36, TYK2(JH1domain-catalytic) (Homo sapiens, UniProt P29597); experiment: KinomeScan; type: binding; settings: read-out: % control
T36 construct: TYK2(JH1domain-catalytic); purchased DiscoveRx KINOMEscan
T36 sequence (P29597 871-1187 limits assumed): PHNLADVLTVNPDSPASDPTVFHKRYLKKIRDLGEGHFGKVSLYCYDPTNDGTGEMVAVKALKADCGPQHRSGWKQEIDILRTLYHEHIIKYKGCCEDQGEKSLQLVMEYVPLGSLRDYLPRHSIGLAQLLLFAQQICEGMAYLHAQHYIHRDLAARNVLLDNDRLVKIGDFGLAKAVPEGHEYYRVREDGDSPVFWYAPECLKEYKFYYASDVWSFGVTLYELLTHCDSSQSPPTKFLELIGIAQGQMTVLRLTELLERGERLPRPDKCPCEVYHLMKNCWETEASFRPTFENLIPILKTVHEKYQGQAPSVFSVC

C=CC(=O)N1CCC[C@@H](n2nc(-c3ccc(OCc4cccc(C)n4)c(Cl)c3)c3c(N)ncnc32)C1 [CHMFL-EGFR-26]
remaining binding at 1 µM (MYLK): 100% | remaining binding at 1 µM (CSNK1A1L): 91% | remaining binding at 1 µM (CAMK1B): 82% | remaining binding at 1 µM (CDK4-cyclinD3): 100% | remaining binding at 1 µM (AKT2): 86% | remaining binding at 1 µM (LKB1): 79% | remaining binding at 1 µM (FLT3-autoinhibited): 99% | remaining binding at 1 µM (MARK1): 100% | remaining binding at 1 µM (FGFR3): 100% | remaining binding at 1 µM (NDR2): 100% | remaining binding at 1 µM [1]: 95% | remaining binding at 1 µM [2]: 0.7% | IC50 (BaF3-INSR): 2800 nM | remaining binding at 1 µM (TLK1): 84% | remaining binding at 1 µM (MKNK1): 100% | fold more potent than AZD9291 (H1975 (EGFRL858R/T790M); H1975 GI50): about 170 fold | GI50 (H1975 (EGFRL858R/T790M); Homo sapiens, NCI-H1975, H1975 (EGFRL858R/T790M), 72 hours, triplet testing): < 0.3 nM | remaining binding at 1 µM (INSRR): 100% | remaining binding at 1 µM (STK39): 92% | remaining binding at 1 µM (DYRK1A): 100% | remaining binding at 1 µM (GRK7): 100% | remaining binding at 1 µM [3]: 85% | remaining binding at 1 µM (MYLK2): 100% | remaining binding at 1 µM (HIPK1): 98% | remaining binding at 1 µM (CAMK1): 100% | remaining binding at 1 µM (BRAF(V600E)): 62% | remaining binding at 1 µM (BMX): 27% | remaining binding at 1 µM (PIK3CD): 100% | remaining binding at 1 µM (CDK8): 92% | remaining binding at 1 µM (CIT): 90% | remaining binding at 1 µM (MAPKAPK5): 100% | remaining binding at 1 µM (PIK3CG): 100% | remaining binding at 1 µM (ERK8): 91% | remaining binding at 1 µM (AXL): 83% | remaining binding at 1 µM (EGFR(G719C)): 16% | remaining binding at 1 µM (EPHB2): 100% | remaining binding at 1 µM (PLK1): 100% | remaining binding at 1 µM (PRP4): 78% | remaining binding at 1 µM [4]: 100%
